This note sets out measurements from ChEMBL document CHEMBL1240417, “QSAR studies of bioactivities of 1-(azacyclyl)-3-arylsulfonyl-1H-pyrrolo[2,3-b]pyridines as 5-HT6 receptor ligands using physicochemical descriptors and MLR and ANN-modeling” (Eur J Med Chem, 2010).

Molecules are shown by their SMILES.

The assay has as its target 5-hydroxytryptamine receptor 6 (Homo sapiens, UniProt P50406). Nature of the assay: Binding affinity to 5HT6 receptor.

Sequence of 5-hydroxytryptamine receptor 6 (P50406 whole entry): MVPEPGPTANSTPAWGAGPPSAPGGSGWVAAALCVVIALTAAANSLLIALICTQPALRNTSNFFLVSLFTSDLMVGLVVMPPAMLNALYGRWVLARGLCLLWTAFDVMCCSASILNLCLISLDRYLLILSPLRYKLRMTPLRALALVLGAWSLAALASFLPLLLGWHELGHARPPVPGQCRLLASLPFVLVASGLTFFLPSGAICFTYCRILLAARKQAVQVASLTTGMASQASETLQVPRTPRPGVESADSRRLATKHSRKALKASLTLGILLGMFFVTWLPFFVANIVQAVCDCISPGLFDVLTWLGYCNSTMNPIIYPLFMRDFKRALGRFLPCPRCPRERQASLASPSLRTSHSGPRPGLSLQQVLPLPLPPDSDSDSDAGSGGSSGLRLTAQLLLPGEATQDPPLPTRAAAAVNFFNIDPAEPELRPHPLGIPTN

Turning to `O=S(=O)(c1cn(C2CCCNC2)c2ncccc12)c1c(Cl)nc2sccn12` (centres undefined), the affinity, expressed as Ki, was 0.708 nM.

Take `CN1CCCC(n2cc(S(=O)(=O)c3c(Cl)nc4sccn34)c3cccnc32)C1` (centres undefined): the inhibitory constant (Ki) (in general, the dissociation constant of the complex between target and ligand, obtained from inhibition or displacement) is 2 nM. This Ki is about 2.8-fold higher than that of the molecule before.

Regarding `CCN1CCCC(n2cc(S(=O)(=O)c3c(Cl)nc4sccn34)c3cccnc32)C1` (centres undefined), the Ki is 0.708 nM.

`O=S(=O)(c1ccc(Cl)s1)c1cn(C2CCNC2)c2ncccc12` (centres undefined): the Ki was 1 nM.

Turning to `CC(C)N1CCCC(n2cc(S(=O)(=O)c3c(Cl)nc4sccn34)c3cccnc32)C1` (centres undefined), the inhibition constant (Ki) was 1.7 nM.

Regarding `O=S(=O)(c1cn(C2CCNC2)c2ncccc12)c1c(Cl)nc2sccn12` (centres undefined), the Ki is 1 nM.

In turn, `CN1CCC(n2cc(S(=O)(=O)c3c(Cl)nc4sccn34)c3cccnc32)C1` (centres undefined) had a Ki of 0.794 nM.

Regarding `CCN1CCC(n2cc(S(=O)(=O)c3c(Cl)nc4sccn34)c3cccnc32)C1` (centres undefined), the affinity corresponds to a Ki of 1.41 nM.

Consider `CCN1CCCC(n2cc(S(=O)(=O)c3ccc(Cl)cc3)c3cccnc32)C1` (centres undefined), for which affinity was put at a Ki of 33.1 nM.
